Data on one compound can be found in patent publication US20230372301A1, “TREATMENTS WITH NIROGACESTAT” (SpringWorks Therapeutics, Inc., priority 2022, published 2023).

Data set [1] has as its system progressing desmoid tumors. The settings on record: Phase 2, participants with progressing desmoid tumors; cited from earlier work.
For data set [2], the system named is progressing desmoid tumors/aggressive fibromatosis (DT/AF). It is filed as in vivo. The source says:
A Phase 3, double-blind, placebo-controlled study is being conducted to determine the efficacy and safety of nirogacestat dihydrobromide in participants with progressing desmoid tumors. A Phase 1 solid tumor study provided preliminary efficacy (Messersmith, W., et al., “A Phase I, dose-finding study in patients with advanced solid malignancies of the oral y-secretase inhibitor PF-03084014,” Clin. Cancer Res., 21:60-7 (2015)), including long-term durable responses and safety of nirogacestat in desmoid participants (Villalobos, V. M., et al., “Long-Term Follow-Up of Desmoid Fibromatosis Treated with PF-03084014, an Oral Gamma Secretase Inhibitor, Ann. Surg. Oncol., 25:768-75 (2018)). These encouraging results lead to a Phase 2 study in participants with progressing desmoid tumors (Kummar, S., et al., “Clinical Activity of the γ-Secretase Inhibitor PF-03084014 in Adults with Desmoid Tumors (Aggressive Fibromatosis), J. Clin. Oncol., 35:1561-69 (2017)). […] Importantly, participants in the responder group had failed previous systemic therapies (imatinib or sorafenib) indicating a need for alterative therapeutic options for this patient population.
Overall Design: The Phase 3 study will be a multi-center, randomized, double-blind, placebo-controlled, event-driven to compare the efficacy, safety, and tolerability of nirogacestat and placebo in adult participants with progressing DT/AF. This study will consist of 2 phases, a double-blind and an optional open-label extension (OLE) phase.
Following disease progression (confirmed by central review using RECIST v1.1), or completion of the double-blind phase (once the required number of events have been observed and the primary PFS analysis has been completed), participants' treatment assignment will be unblinded, and if eligible, participants will have the option to enroll in the optional OLE phase.
Type of Participant and Disease Characteristics: • 1. Participant has DT/AF that has progressed by ≥20% as measured by RECIST v1.1 within the 12-month period prior to first dose of study treatment. • 2. Participant has: • a. Newly diagnosed, measurable progressing DT/AF that is not amenable to surgical resection or radiation therapy; • OR • b. Recurrent, progressing DT/AF following CR to initial therapy; • OR • c. Preexisting DT/AF and has previously received therapy and the residual tumor has progressed. • 3. Participant agrees to provide archival or new tumor tissue for confirmation of disease. • 4. If participant was previously treated with an investigational therapy for treatment of DT/AF, participant must have completed prior therapy at least 28 days prior to signing informed consent. All toxicities from prior therapy must resolve to Grade 1 or baseline. • 5. Participants who are receiving nonsteroidal anti-inflammatory drugs (NSAIDs) as treatment for conditions other than DT/AF must be receiving them prior to the observed progression (inclusion criteria 1) for: • a. Chronic scheduled daily use (defined as stable for 28 days prior to signing informed consent); or • b. Occasional use (defined as ≤3 days per week) for the treatment of pain or as an anti-inflammatory in licensed conditions such as headache, arthritis, etc. • c. Participant has an Eastern Cooperative Oncology Group (ECOG) performance status ≤2 at screening. • 6. Participant has adequate organ and bone marrow function as defined by the following Screening laboratory values: • a. Absolute neutrophil count ≥1500/μL; • b. Platelets ≥100×10^3/μL; • c. Hemoglobin ≥9 g/dL; • d. Total bilirubin ≤1.5×upper limit of normal (ULN) (isolated bilirubin >1.5×ULN is acceptable if bilirubin is fractionated and direct bilirubin <35%); • e. Aspartate aminotransferase (AST) (serum glutamic oxaloacetic transaminase)/alanine aminotransferase (ALT) (serum glutamic pyruvate transaminase)≤2×ULN; and • f. […] Participant can swallow tablets and has no gastrointestinal conditions affecting absorption. […]

[3] abbreviates: 150 mg twice daily, positive change indicates improvement.
Where [4] appears, read: change from Baseline in EORTC, P: <0.001.

Each structure is given as a SMILES string.

Consider `CCC[C@H](N[C@H]1CCc2cc(F)cc(F)c2C1)C(=O)Nc1cn(C(C)(C)CNCC(C)(C)C)cn1` (single isomer, unassigned) [nirogacestat], for which, in data set [1], the “participants progressing while on therapy” value is recorded as “no participants progressing while on therapy”, the response rate is given as 29% and the “tumor shrinkage as measured by magnetic resonance imaging (MRI)” value is listed as “significant tumor shrinkage”. In data set [2] (setting [3]), the “mean change from Baseline in EORTC, Global health status/Quality of life (GHS/QoL)” value is given as 4.493; the “mean change from Baseline in EORTC, QLQ30 Role Functioning” value stood at 11.133; the “mean change from Baseline in EORTC, QLQC30 Physical Functioning” value amounted to 8.523. The “LS mean difference (between nirogacestat and placebo), Global health status/Quality of life (GHS/QoL)” value in data set [2] (change from Baseline in EORTC, P: 0.007) is recorded as 10.515. For the same compound, in data set [2] (setting [4]), the “LS mean difference (between nirogacestat and placebo), QLQ30 Role Functioning” value was 16.714; the “LS mean difference (between nirogacestat and placebo), QLQC30 Physical Functioning” value stood at 13.154. Further, the “most frequent adverse reactions requiring a dose reduction or interruption” value in data set [2] (in vivo) was “diarrhea, rash maculo-papular, hypophosphatemia, stomatitis, folliculitis, and fatigue”. Besides, in data set [2] (nirogacestat 150 mg twice daily over placebo, <0.001), the “progression-free survival (PFS), hazard ratio (HR)” value amounted to 0.29. Also, in data set [2] (nirogacestat 150 mg twice daily versus placebo, p<0.001), the “objective response rate (ORR)” value is given as “statistically significant improvements”. Moreover, the “four different quality of life (QoL) assessments and patient-reported outcomes (PROs)” value in data set [2] (nirogacestat 150 mg twice daily versus placebo, p<0.001 for each) is “statistically significant improvements”.
